Data reported in patent publication US11608367B2, “Peptides for angiogenic therapy” (The Regents of the University of California, priority 2018, dated 2023).

Tests used:
[1] = system: cancer, cardiac and neuronal cell lines; experiment: Categorisation of active ADPs as pro-/anti-apoptotic (Example 15); conditions: criteria of Example 15
[2] = Effectiveness of ADPs (Example 1, Table 6; cell death assays of FIGS. 10-13); assay type: cell-based; conditions: ADPs with N-terminal tumor penetrating peptide and C-terminal fluorescent tag; graded in words
Excerpt: FIGS. 10A-C show the sequences mapped, peptide blots, imaging to show expression and cell death assays for these three peptides. A) PPA-1 (PEPTIDE23) (SEQ ID NO:23), B) PPA4 (PEPTIDE19) (SEQ ID NO:19), C) PPA10 (PEPTIDE16 including FF at C-terminus) (SEQ ID NO:16).
FIGS. 11A-B show the sequences mapped, peptide blots, imaging to show expression and cell death assays for these HSP-70 peptides. A) PHA4 (PEPTIDE5) (SEQ ID NO:5), B) PHA5 (PEPTIDE13 plus C-terminal L) (SEQ IDS NO: 13).
FIGS. 12A-C show the sequences mapped, peptide blots, imaging to show expression and cell death assays for these p65 (RELA) peptides. A) PRA1 (PEPTIDE14) (SEQ ID NO:14), B) PRA8 (PEPTIDE8) (SEQ ID NO:8), C) PRA9 (SEQ ID Nos:33 and 37-45).
FIGS. 13A-D show the sequences mapped, peptide blots, imaging to show expression and cell death assays for these HSP-70 peptides. A) PAA1-1 (PEPTIDE11) (SEQ ID NO:11), B) PPA1-3 (PEPTIDE15) (SEQ ID NO:15), C) PAR1 (PEPTIDE19), D) Paint 1 (PEPTIDE7) (SEQ ID NO:7).
ADPs were first identified using Peptide SPOT analysis. Peptides were identified from AKIP1. PKAc, HSP-70 and p65 sequences. The identified ADPs were attached at the N-terminus to tumor penetrating peptide based on the CENDR rule (FIG. 9). A fluorescent tag was attached to the C-terminus for ease of visualization.
To test these ADPs, CRISPR based AKIP1 knock-out cell lines were generated in HEK 293 and glioblastoma cell lines. Further, all the isoforms of AKIP1 were reintroduced into the AKIP1 knock-out glioblastoma cell lines.

[3] = system: cancer, cardiac and neuronal cell lines; experiment: Categorisation of active ADPs as pro-/anti-apoptotic (Example 15); conditions: depending on cell type
Excerpt: 2) improved cell viability in cardiac or neuronal cell lines and decreased viability in at least 2 cancer cell lines.

[4] = system: U87-MG cells; experiment: Caspase-Glo 3/7 apoptotic assay; assay type: cell-based, human; conditions: cut-off value at 20 over scrambled control with P Value <0.05%
Procedure: Caspase-Glo® 3/7 assays (Promega) were performed according to the manufacturer's protocol. Briefly, 15,000-20,000 cells were seeded in a 96 well white flat bottom plate. The peptide constructs were transfected in triplicates using Lipofectamine 3000. Twenty four hour post-transfection, the cells were equilibrated at room temperature and Caspase-Glo® 3/7 reagent was dispensed into each well and the luminescent signal was measured 30-60 mins incubation at room temperature. The blank reaction was used to measure background luminescence associated with the cell culture system and Caspase-Glo® 3/7 Reagent alone. The value for the blank reaction was subtracted from experimental values to obtain the relative luminescence values (RLU). The percentage change over the Scrambled control was calculated from the mean as follows: [(Mean peptide RLU-Mean Scr RLU)/Scr RLU*100]. The P value was calculated using the Student t Test.
The efficacy of the 25 disclosed peptides to cause apoptosis in the U87-MG cells was measured using Caspase-Glo® 3/7 Assay. For each of the peptides, the percentage change over the scrambled control was tabulated and a cut-off value at 20 with a P Value of <0.05%.

Row | Sequence | Pro-apoptotic (anti-angiogenic) category [1] | Effectiveness [2] | other results
1 | DWWALGVLIYEMAAGYPP [PEPTIDE17] | Pro-apoptotic (anti-angiogenic) |  | 
2 | DNCLAAAALNGVDRRSLQRSAKLALEVLERAKRR [PAint] |  | Moderate | 
3 | VKKRDLEQAISQRIQTNNNPFQVPIEEQRGDYDLNAVR [PEPTIDE8] | Pro-apoptotic (anti-angiogenic) | Moderate | both pro and anti-apoptotic effect [3]: both pro and anti-apoptotic effect; anti-apoptotic (pro-angiogenic) category [1]: anti-apoptotic (pro-angiogenic)
4 | DNCLAAAALNGVDRRSLQRSARLALEVLERAKR [PEPTIDE12] |  |  | anti-apoptotic (pro-angiogenic) category [1]: anti-apoptotic (pro-angiogenic)
5 | VKKRDLEQAISQRIQTNNN [PEPTIDE18] | Pro-apoptotic (anti-angiogenic) |  | 
6 | RRAVDWHALERPKGCMGVLAREAPHLEKQPAAGPQRVLPGE [PEPTIDE3] | Pro-apoptotic (anti-angiogenic) |  | 
7 | SHFSEHTALWDRSMKEFLAKAKEDFLKK [PEPTIDE10] | Pro-apoptotic (anti-angiogenic) |  | both pro and anti-apoptotic effect [3]: both pro and anti-apoptotic effect; anti-apoptotic (pro-angiogenic) category [1]: anti-apoptotic (pro-angiogenic)
8 | IMQDKLEKERNDAKNAVEEYVYEMRDKLSGEYEKFVSEDDRNSFTLKLEDTENWL [PHA 5, PEPTIDE13 without the C-terminal Y] |  | High | 
9 | FTDLASVONSEFQQLLNQ (FTDLASVDNSEFQQLLNQ) [PEPTIDE24] |  |  | apoptosis in U87-MG cells (in words) [4]: very low apoptosis
10 | LNGVDRRSLQRSARLALEVLERAK [PEPTIDE11] | Pro-apoptotic (anti-angiogenic) | High | both pro and anti-apoptotic effect [3]: both pro and anti-apoptotic effect; anti-apoptotic (pro-angiogenic) category [1]: anti-apoptotic (pro-angiogenic)
11 | STDPAVFTDLASVDNSEFQQLLNQG [PEPTIDE25] |  |  | apoptosis in U87-MG cells (in words) [4]: very low apoptosis
12 | KYYSSVPEEGGATHVYRYHRGESKLHM [PEPTIDE9] | Pro-apoptotic (anti-angiogenic) | High | 
13 | VTVGSNDLTKKTHVVAVDSGQSVDLVFPV [PEPTIDE4] | Pro-apoptotic (anti-angiogenic) |  | both pro and anti-apoptotic effect [3]: both pro and anti-apoptotic effect; anti-apoptotic (pro-angiogenic) category [1]: anti-apoptotic (pro-angiogenic)
14 | IMQDKLEKERNDAKNAVEEYVYEMRDKLSGEYEKFVSEDDRNSFTLKLEDTENWLY [PEPTIDE13] | Pro-apoptotic (anti-angiogenic) |  | 
15 | GGSYQISEHAPEASQPAENISKDLYIEVYPGTYS [PEPTIDE7] | Pro-apoptotic (anti-angiogenic) | Low | 
16 | DIGNGQRKDRKKTSLGPGGSYQISEHA [PEPTIDE5] | Pro-apoptotic (anti-angiogenic) | High | 
17 | REERPPTLSASFRTMAEFMDYTSSQCG [PEPTIDE1] | Pro-apoptotic (anti-angiogenic) |  | 
18 | PLIFPAEPAQASGPYVEIIEQPKQ [PEPTIDE14] | Pro-apoptotic (anti-angiogenic) | High | 
19 | RKDRKKTSLGPGGSYQISEHAPEASQP [PEPTIDE2] | Pro-apoptotic (anti-angiogenic) |  | 
